Tests used:
Phosphodiesterase 3 [1] = biological target: T1, Phosphodiesterase 3 (Homo sapiens, UniProt Q14432+Q13370); test: Optimum inhibitory concentration required to inhibit […] (PDE3); assay type: protein assay
[2] = biological target: T2, cGMP-specific 3',5'-cyclic phosphodiesterase (Bos taurus, UniProt Q28156); test: Optimum inhibitory concentration required to inhibit c-GMP specific Phosphodiesterase 5 (PDE5) of bovine lung
[3] = biological target: Dual specificity calcium/calmodulin-dependent 3',5'-cyclic nucleotide phosphodiesterase 1A (Bos taurus, UniProt P14100); test: Optimum inhibitory concentration required to inhibit c-GMP specific phosphodiesterase 1 (PDE1) of bovine aorta
Dual specificity calcium/calmodulin-dependent 3',5'-cyclic nucleotide phosphodiesterase 1A, sequence (P14100 whole entry): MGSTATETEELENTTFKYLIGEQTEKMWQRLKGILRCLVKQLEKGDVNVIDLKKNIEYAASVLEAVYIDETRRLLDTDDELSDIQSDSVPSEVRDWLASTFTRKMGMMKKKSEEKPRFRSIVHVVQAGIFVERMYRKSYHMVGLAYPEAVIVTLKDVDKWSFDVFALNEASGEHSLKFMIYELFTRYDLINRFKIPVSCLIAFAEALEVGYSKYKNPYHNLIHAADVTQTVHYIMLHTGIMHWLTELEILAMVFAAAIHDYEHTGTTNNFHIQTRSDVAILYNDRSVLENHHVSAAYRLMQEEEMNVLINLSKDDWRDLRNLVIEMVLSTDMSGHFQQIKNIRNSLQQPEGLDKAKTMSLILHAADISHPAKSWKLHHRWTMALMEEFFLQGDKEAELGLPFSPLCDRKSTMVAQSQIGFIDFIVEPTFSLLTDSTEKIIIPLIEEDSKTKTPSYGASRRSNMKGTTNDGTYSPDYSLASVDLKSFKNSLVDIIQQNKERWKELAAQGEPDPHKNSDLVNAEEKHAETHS

Phosphodiesterase 3 [4] = biological target: T1, Phosphodiesterase 3; test: Inhibition of cGMP-inhibited phosphodiesterase 3 (PDE3); assay type: protein assay
[5] = biological target: T2, cGMP-specific 3',5'-cyclic phosphodiesterase; test: Inhibition of c-GMP specific phosphodiesterase PDE5 of bovine lung

| IC50 (Phosphodiesterase 3 [1]) [nM] | IC50 [2] [nM] | IC50 [3] [nM] | IC50 (Phosphodiesterase 3 [4]) [nM] | IC50 [5] [nM] | SMILES |
| --- | --- | --- | --- | --- | --- |
| 38000 | 140 | 110 | – | – | CCCCc1nc2c([nH]1)N1C(=N[C@@H]3CCC[C@@H]31)N(C)C2=O |
| 65000 | 6 | 12 | – | – | CC(C)CCCc1nc2c([nH]1)N1C[C@@H](C(C)C)N=C1N(C)C2=O |
| 15000 | – | 14 | – | – | CC(C)CCc1nc2c([nH]1)N1C(=N[C@@H]3CCC[C@@H]31)N(C)C2=O |
| 12000 | – | 36 | – | – | CCCCCCc1nc2c([nH]1)N1C(=N[C@@H]3CCC[C@@H]31)N(C)C2=O |
| – | – | 33 | 10000 | 14 | CCCCCCCCc1nc2c([nH]1)N1C(=N[C@@H]3CCC[C@@H]31)N(C)C2=O |
| 150000 | 1400 | 150 | – | – | CCC(CC)c1nc2c([nH]1)N1C(=N[C@@H]3CCC[C@@H]31)N(C)C2=O |
| 15000 | 11 | 14 | – | – | CCCCCCc1nc2c([nH]1)N1CC3(CCCC3)N=C1N(C)C2=O |
| 20000 | 40 | 31 | – | – | CCCCCc1nc2c([nH]1)N1C(=N[C@@H]3CCC[C@@H]31)N(C)C2=O |
| 40000 | 22 | 15 | – | – | CC(C)CCc1nc2c([nH]1)N1C[C@@H](C(C)C)N=C1N(C)C2=O |
| 18000 | 5 | 25 | – | – | CCCCCCc1nc2c([nH]1)N1C[C@@H](C(C)C)N=C1N(C)C2=O |
| 80000 | – | 350 | – | – | CCCc1nc2c([nH]1)N1C(=N[C@@H]3CCC[C@@H]31)N(C)C2=O |
| 7000 | 30 | 160 | – | – | CCCCCCCc1nc2c([nH]1)N1C(=N[C@@H]3CCC[C@@H]31)N(C)C2=O |
| 35000 | 10 | 6 | – | – | CC(C)CCCc1nc2c([nH]1)N1C(=N[C@@H]3CCC[C@@H]31)N(C)C2=O |
| > 300000 | – | 1250 | – | – | Cc1nc2c([nH]1)C(=O)N(C)C1=N[C@@H]3CCC[C@@H]3N12 |
| 80000 | 150 | 60 | – | – | CCCC(CCC)c1nc2c([nH]1)N1C(=N[C@@H]3CCC[C@@H]31)N(C)C2=O |
| 28000 | 8 | 25 | – | – | CCCCCCc1nc2c([nH]1)N1CC(C)(C)N=C1N(C)C2=O |
| 150000 | 1200 | 295 | – | – | CCc1nc2c([nH]1)N1C(=N[C@@H]3CCC[C@@H]31)N(C)C2=O |
